Consider 15 compounds from patent publication US20260199273A1, “Compounds for the Treatment of Neuromuscular Disorders” (NMD PHARMA A/S, priority 2022, published 2026).

pEC50: −log10 of the molar value.

One experiment concerns the target T1, CIC-1 ion channel (Rattus norvegicus, UniProt P35524).
T1 construct: from tissue; host or cells: whole soleus muscle of 12-14 week old Wistar rats
T1 sequence (P35524 1-994): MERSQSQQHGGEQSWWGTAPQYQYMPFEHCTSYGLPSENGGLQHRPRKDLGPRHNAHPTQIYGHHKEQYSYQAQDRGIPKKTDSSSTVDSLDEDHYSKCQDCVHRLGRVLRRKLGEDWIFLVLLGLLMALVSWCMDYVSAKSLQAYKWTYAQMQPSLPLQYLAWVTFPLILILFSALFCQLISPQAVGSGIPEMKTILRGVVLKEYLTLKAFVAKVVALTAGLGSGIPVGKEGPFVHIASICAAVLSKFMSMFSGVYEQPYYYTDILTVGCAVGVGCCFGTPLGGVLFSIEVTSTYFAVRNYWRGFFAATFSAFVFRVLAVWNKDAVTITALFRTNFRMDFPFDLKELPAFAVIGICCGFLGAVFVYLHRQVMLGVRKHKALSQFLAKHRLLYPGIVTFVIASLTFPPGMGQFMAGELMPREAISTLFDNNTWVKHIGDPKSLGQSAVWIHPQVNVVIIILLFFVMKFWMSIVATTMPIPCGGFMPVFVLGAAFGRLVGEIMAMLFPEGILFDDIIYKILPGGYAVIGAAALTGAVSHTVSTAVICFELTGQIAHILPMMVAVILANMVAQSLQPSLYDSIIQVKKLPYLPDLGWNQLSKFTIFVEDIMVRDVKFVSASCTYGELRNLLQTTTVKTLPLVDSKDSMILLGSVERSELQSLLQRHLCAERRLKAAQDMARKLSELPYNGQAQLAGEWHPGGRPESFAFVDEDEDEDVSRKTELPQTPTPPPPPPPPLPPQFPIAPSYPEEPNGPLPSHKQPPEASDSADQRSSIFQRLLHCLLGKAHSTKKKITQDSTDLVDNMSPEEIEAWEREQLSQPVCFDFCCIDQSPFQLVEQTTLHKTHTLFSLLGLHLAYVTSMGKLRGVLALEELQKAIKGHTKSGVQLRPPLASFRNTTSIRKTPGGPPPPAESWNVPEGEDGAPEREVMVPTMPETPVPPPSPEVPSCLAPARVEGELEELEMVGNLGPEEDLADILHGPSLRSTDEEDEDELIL
Nature of the experiment: Electrophysiological measurement of compound inhibition of CIC-1 in rat muscle (Gm in soleus fibres, three micro-electrodes). The class given is cell-based. As to conditions: Gm in individual fibres of whole rat soleus muscles, approx. 30° C., four increasing compound concentrations; read-out: Potency Range (EC50, inhibition of CIC-1 ion channel). The protocol:
Apparent CIC-1 affinity was reported by the concentration of compound at which 50% of the compound's full inhibition of CIC-1 was observed (EC50) (see also WO2019/115777).
Experimentally, Gm was measured in individual fibres of whole rat soleus muscles using a three micro-electrodes technique described in this example and in full detail elsewhere (Riisager et al., Determination of cable parameters in skeletal muscle fibres during repetitive firing of action potentials. Journal of Physiology, 2014, 592, 4417-4429). Briefly, intact rat soleus muscles were dissected out from 12-14 week old Wistar rats and placed in an experimental chamber that was perfused with a standard Krebs Ringer solution containing 122 mM NaCl, 25 mM NaHCO3, 2.8 mM KCl, 1.2 mM KH2PO4, 1.2 mM MgSO4, 1.3 mM CaCl2, 5.0 mM D-glucose. During experiments, the solution was kept at approx. 30° C. and continuously equilibrated with a mixture of 95% O2 and 5% CO2, pH ~7.4. The experimental chamber was placed in Nikon upright microscope that was used to visualize individual muscle fibres and the three electrodes (glass pipettes filled with 2 M potassium citrate). For Gm measurements, the electrodes were inserted into the same fibre with known inter-electrode distances of 0.35-0.5 mm (V1-V2, X1) and 1.1-1.5 mm (V1-V3, X3). The membrane potential of the impaled muscle fibre was recorded by all electrodes. Two of the electrodes were furthermore used to inject 50 ms current pulses of −30 nA. […] The steady state voltage deflection at each distance was divided by the magnitude of current injected (−30 nA) and the resulting transfer resistances were plotted against inter-electrode distance and the data was fitted to a mono-exponential function from which Gm could be calculated using linear cable theory.
To establish a dose response relationship, Gm was first determined in 10 muscle fibres in the absence of compound and then at four increasing compound concentrations with Gm determinations in 5-10 fibres at each concentration. The average Gm values at each concentration were plotted against compound concentration and the data was fitted to sigmoidal function to obtain an EC5o value.

For experiment [1], the system named is isolated rat soleus nerve-muscle preparations. The experiment in a line: Measurement of force in an in vitro model: recovery of nerve-stimulated contractile force after tubocurarine. The conditions noted are these: 40 min, after 40 mins of compound exposure, tubocurarine (115 nM) for 90 minutes, read-out: Point increase (%): percentage increase of initial force that was restored; for activation at 10 µM: 10 μM of test compound; for activation at 50 µM: 50 μM of test compound. The method, boiled down:
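Isolated soleus nerve-muscle preparations from 4-5 week old rats, nerve-stimulated in Krebs Ringer at 30° C, 95% O2/5% CO2, pH ~7.4. Force reduced with 115 nM tubocurarine for 90 min, then compound added. Value is percentage-point increase in initial force restored after 40 min compound exposure.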

The pEC50 is the negative decadic logarithm of the EC50, by convention in mol/L. With `O=C(O)c1c(Cl)c(F)cc2c1N(Cc1ccccc1)CCC2` [Compound A-74, 1-Benzyl-7-chloro-6-fluoro-1,2,3,4-tetrahydro-8-quinolinecarboxylic acid], on CIC-1 ion channel, the pEC50 is 5.70 to 6.70. For the same compound, in experiment [1], the activation at 10 µM was determined as 11%.
For `O=C(O)c1c(F)c(Cl)cc2c1OCCC2` [Compound A-36, 6-Chloro-7-fluoro-3,4-dihydro-2H-1-benzopyran-8-carboxylic acid] the same measures were 5.00 to 5.70 and 43%.
On to `COc1c(Cl)c(F)c2c(c1C(=O)O)CCCC2` [Compound A-19, 3-Chloro-4-fluoro-2-methoxy-5,6,7,8-tetrahydronaphthalene-1-carboxylic acid], for which, on CIC-1 ion channel, the negative logarithm of the EC50 (pEC50) is 5.70 to 6.70. Moreover, in experiment [1], the activation at 50 µM worked out at 41%.
The corresponding values for `O=C(O)c1c(F)c(C2CC2)cc2c1CCCC2` [Compound A-54, 3-Cyclopropyl-2-fluoro-5,6,7,8-tetrahydronaphthalene-1-carboxylic acid] are 4.70 to 5.00 and 47%.
As to `O=C(O)c1c(Cl)c(F)cc2c1OCCCC2` [Compound A-56, 8-chloro-7-fluoro-2,3,4,5-tetrahydro-1-benzoxepine-9-carboxylic acid], at CIC-1 ion channel, the negative logarithm of the EC50 (pEC50) is 5.00 to 5.70. Besides, the activation at 10 µM in experiment [1] stood at 31%.
The corresponding values for `COc1c(F)cc2c(c1C(=O)O)CCCC2` [Compound A-18, 3-Fluoro-2-methoxy-5,6,7,8-tetrahydronaphthalene-1-carboxylic acid] are 5.70 to 6.70 and 46%.
As to `CC1(C)CCc2cc(Cl)cc(C(=O)O)c2O1` [Compound A-53, 6-Chloro-2,2-dimethyl-3,4-dihydro-2H-1-benzopyran-8-carboxylic acid], the pEC50 at CIC-1 ion channel was 5.70 to 6.70. Further, the activation at 10 µM in experiment [1] amounted to 43%.
Turning to `COc1c(C)cc2c(c1C(=O)O)CCC2` [Compound A-47, 5-Methoxy-6-methyl-2,3-dihydro-1H-indene-4-carboxylic acid], at CIC-1 ion channel, the pEC50 was 5.00 to 5.70. Besides, the activation at 50 µM in experiment [1] was determined as 37%.
Regarding `COc1c(Cl)cc2c(c1C(=O)O)CCCC2(F)F` [Compound A-73, 3-Chloro-5,5-difluoro-2-methoxy-5,6,7,8-tetrahydro-1-naphthoic acid], the pEC50 at CIC-1 ion channel is 5.70 to 6.70. Also, the activation at 10 µM in experiment [1] was found to be 23%.
The corresponding values for `O=C(O)c1c2c(cc(Cl)c1OC(F)F)CCC2` [Compound A-10, 6-Chloro-5-(difluoromethoxy)-2,3-dihydro-1H-indene-4-carboxylic acid] are 5.00 to 5.70 and 36%.
For `O=C(O)c1c(Cl)c(F)cc2c1CCCC2` [Compound A-27, 2-chloro-3-fluoro-5,6,7,8-tetrahydronaphthalene-1-carboxylic acid] the same measures were 5.00 to 5.70 and 38%.
As for `Cc1c(Cl)cc2c(c1C(=O)O)CCC2` [Compound A-1, 6-Chloro-5-methyl-2,3-dihydro-1H-indene-4-carboxylic acid], the pEC50 at CIC-1 ion channel is 4.70 to 5.00. Besides, the activation at 50 µM in experiment [1] was 23%.
On to `O=C(O)c1c(F)c(Cl)cc2c1CCC2` [Compound A-63, 6-Chloro-5-fluoro-2,3-dihydro-1H-indene-4-carboxylic acid], for which the pEC50 at CIC-1 ion channel was 5.00 to 5.70. In addition, the activation at 10 µM in experiment [1] turned out to be 28%.
With `C=Cc1c(Cl)cc2c(c1C(=O)O)CCCC2` [Compound A-35, 3-Chloro-2-ethenyl-5,6,7,8-tetrahydronaphthalene-1-carboxylic acid], the pEC50 at CIC-1 ion channel was 5.70 to 6.70. For the same compound, the activation at 10 µM in experiment [1] was found to be 16%.
Consider `COc1c(Cl)cc2c(c1C(=O)O)OCC2` [Compound A-15, 5-Chloro-6-methoxy-2,3-dihydro-1-benzofuran-7-carboxylic acid], for which the negative logarithm of the EC50 (pEC50) at CIC-1 ion channel was 5.00 to 5.70. In addition, the activation at 50 µM in experiment [1] was 40%.
